Experimental data reported in patent publication US20260256741A1, “ANTICANCER MALEIMIDE DERIVATIVES FOR USE WITH IMMUNE CHECKPOINT BLOCKADE” (BROWN UNIVERSITY, priority 2022, published 2026).

How the values were obtained:
[1] = system: refractory solid tumors of multiple tissue origins; test: Phase 1 clinical trial of elraglusib (NCT03678883), PFS and OS; assay type: in vivo, human; conditions: patients analysed, n=19, multiple tumor types
Experimental: Archival tumor specimens and peripheral blood samples were collected from patients enrolled in the Phase I study of Elraglusib (9-ING-41), a small molecule selective glycogen synthase kinase-3 beta (GSK-3b) inhibitor, as monotherapy or combined with cytotoxic regimens in patients with relapsed or refractory hematologic malignancies or solid tumors (Clinicaltrials.gov NCT03678883) who received treatment at the Lifespan Cancer Institute (Providence, RI, USA). The study was conducted in accordance with the Declaration of Helsinki and the International Conference on Harmonization Good Clinical Practice guidelines. The study protocol was approved by the Institutional Review Board (IRB) of Rhode Island Hospital under protocol number 1324888-120. The patients also participated in a Lifespan Cancer Institute research protocol designed to investigate molecular and genetic features of tumors and mechanisms of resistance (Rhode Island Hospital IRB protocol number 449060-38). All patients provided written informed consent.

[2] = system: CRC (HCT-116, HT-29) and TALL-104 cells; test: Pyroptotic events in 40x co-culture images; assay type: cell-based, human
Experimental: (§1) 5000 HT-29 GFP+ or HCT 116 GFP+ cells were plated per well in a clear-bottom, black-walled 96-well tissue culture plate and were allowed to adhere overnight. Cells were subsequently treated with DMSO, 5 μM elraglusib, and/or 5000 TALL-104 or NK-92 cells (for an effector-to-tumor ratio of 1:1) for 48 hours. Nine images were taken per well at 10× magnification using a Molecular Devices ImageXpress® Confocal HT.ai High-Content Imaging System and quantified for the number of GFP+ objects using the MetaXpress (RRID: SCR_016654) software (Molecular Devices, San Jose, CA, USA). 40× Images were also taken at 24 hours for representative images of cellular morphology changes. Statistical analysis was done using GraphPad Prism 9 (RRID: SCR_002798).

[3] = system: HCT 116 GFP+ cells; test: Single-color GFP+ immune cell co-culture, HCT 116; assay type: cell-based, human; conditions: 48 hours
Experimental: 50,000 HT-29 or HCT 116 cells were seeded in a 12-well tissue culture plate and allowed to adhere overnight. They were then transduced with lentivirus containing the plasmid pLenti_CMV_GFP_Hygro [pLenti CMV GFP Hygro (656-4) was a gift from Eric Campeau & Paul Kaufman (Addgene viral prep #17446-LV; RRID: Addgene_17446)] at a multiplicity of infection of 10 with 8 μg/mL polybrene (hexadimethrine bromide [Cat #107689, Sigma Aldrich, St. Louis, MO, USA) for 24 hours before washing with PBS and replacing with fresh medium (49). The cells were then sorted for GFP-positivity using a BD FACSAria™ III Cell Sorter (RRID: SCR_016695).
as §1

[4] = system: SW480 tumor cells; test: Multicolor co-culture of SW480 tumor cells and donor-derived CD8+ T cells, EthD-1 dead cells; assay type: cell-based, human; conditions: for percentage of dead cells (average, normalized): then co-culture with donor-derived CD8+ T cells; for percentage of dead cells out of total cells (average, normalized): co-culture with donor-derived CD8+ T cells, 24 hours
Experimental: An Easy Step Human CD8+ T Cell Isolation Kit was used to isolate CD8+ T cells from a donor PBMC sample via negative selection (Cat #, 17913, Stem Cell Technologies, Vancouver, Canada).
10,000 HCT-116, SW480, or HT-29 cells were plated per well in a clear-bottom, black-walled 48-well tissue culture plate and were allowed to adhere overnight. Cells were subsequently treated with DMSO, 5 μM or 10 μM elraglusib, and/or 10,000 TALL-104 or NK-92 cells (for an effector-to-tumor ratio of 1:1) for 24 hours. CRC cells were labeled using CellTracker™ Green CMFDA (5-chloromethylfluorescein diacetate), immune cells (NK-92, TALL-104) were labeled using CellTracker™ Blue CMAC Dye (7-amino-4-chloromethylcoumarin), and ethidium homodimer-1 (EthD-1) was used as a marker of cell death (Invitrogen, Waltham, MA). 10× images were captured using a Nikon Ti-U Inverted Fluorescence Microscope and NIS-Elements F Package imaging software 3.22.00 Build 710 (Nikon Instruments Inc, USA). The number of red/green color cells in random fields was determined using thresholding and particle analysis in the Fiji modification (RRID: SCR_002285) of ImageJ and expressed as a dead/live cell ratio. Normalization was carried out by subtracting the percentage of cell death due to drug or vehicle control (DMSO) only from the percentage of dead cells observed in the co-culture of tumor and immune cells treated with the drug. At least 100 cells were evaluated per sample, with 3 independent replicates. Statistical analysis was done using GraphPad Prism 9 (RRID: SCR_002798).

SMILES: Cn1cc(C2=C(c3coc4ccc(F)cc34)C(=O)NC2=O)c2cc3c(cc21)OCO3 [elraglusib, 3-(5-fluorobenzofuran-3-yl)-4-(5-methyl-5H-[1,3]dioxolo[4,5-f]indol-7-yl)-1H-pyrrole-2,5-dione]
- median OS [1]: 101 days
- median PFS [1]: 75.9 days
- pyroptotic events ([2]; co-culture of CRC and TALL-104 cells with 5 μM elraglusib): significant increase in pyroptotic events
- pyroptotic events ([2]; drug-only condition, no immune cells): did not observe any pyroptotic events
- tumor cell death ([3]; 5 μM elraglusib and NK-92 cells vs drug-only or immune cell-only): increased tumor cell death
- GFP+ cells per low-powered field ([3]; 5 μM elraglusib only vs DMSO only control): significant decrease
- number of GFP+ cells per field ([3]; TALL-104 and 5 μM elraglusib vs TALL-104 only): significant decrease
- percentage of dead cells (average, normalized) ([4]; 10 μM for 24 hours): 70%
- percentage of dead cells out of total cells (average, normalized) ([4]; 5 μM): 65%
- percentage of dead cells out of total cells (average, normalized) ([4]; 10 μM): 75%
- tumor cell death in SW480 monocultures ([4]; drug only, no immune cells): limited tumor cell death
- percentage of dead cells (average, normalized) ([4]; tumor cells pre-treated with 5 μM for 24 hours): 65%
